Experimental data published in patent publication US10918891B2, “Cosmetic treatment method for the skin” (SYNTIVIA, priority 2016, dated 2021).

Key:
[1] = test system: IL-8; assay: IL-8 assay (ELISA) in culture supernatants of NHEK after induction with IL-1β; type: cell-based, human
Protocol: This study is carried out on normal human Keratinocytes (NHEK).
In this example, the anti-inflammatory properties of the compound (Ia) are evaluated by the assay of the IL-8, after the application of the cytokine IL-1β at 10 ng/ml onto NHEKs. IL-8 is a major inflammatory cytokine produced first of all during the inflammatory response of the keratinocytes. The quantification of the IL-8 in the culture supernatants allows an evaluation of the inflammatory state of the cells.
The IL-1β is added to the culture medium of the NHEKs at a rate of 10 ng/ml for 24 h. After incubation, the culture media are removed and replaced with culture media containing the compound (Ia) at 3 ppm. After 24 h of incubation, the supernatants are collected.
The reference anti-inflammatory element is dexamethasone (Sigma) used at 0.4 ppm. A control having undergone the same experimental conditions without the compound (Ia) (CTL), as well as a non-induced control (CTL without IL-1β), are also carried out.
The quantification of the IL-8 in 50 μl of the culture supernatants is measured by an ELISA test (human CXCL8/IL-8 Immunoassay, R&D Systems).
Each treatment is carried out in triplicate.

[2] = test system: NHDF cells; assay: Cellular viability (WST1) of NHDF exposed to cigarette extract; type: cell-based, human; settings: (Ia) 10 ppm pretreatment 24 h and treatment 24 h; cigarette extract diluted 1/50; WST1, 450 nm; Control 1.618, Cigarette extract 1.357
Protocol: The cells used for this example are normal human Fibroblasts (NHDF) and normal human epidermal Keratinocytes (NHEK).
A cigarette extract is prepared using a laboratory device allowing the sucking up of cigarette smoke via a suction system, and the controlled bubbling of this cigarette smoke into the solution studied, which is then filtered on a 0.22 μm filter made of Polyether sulfone (PES).
The cells are cultured at the concentration of 7000 cells per well of 96-well plates (NHDF) or 8000 cells per well (NHEK), in the presence of standard culture medium for NHDF or NHEK (for 24 h 37° C., 5% CO2).
After pretreatment of the cells with the compound (Ia) at 10 ppm for 24 h the cells are treated with the cigarette extract diluted to 1/50th in the culture medium with or without the compound (Ia) at 10 ppm for 24 h. The absorbance is read a first time at […] (Multiskan®).
Then, 10 μl of WST1 (Roche) are introduced into the medium and the cells are incubated for 3 hours.
The absorbance at 450 nm is measured after the addition of WST1 (Multiskan®) and the results obtained, in terms of cellular viability, are shown in tables 11 and 12 below. The treated cells (Cigarette extract+(Ia)) are compared to the untreated cells (Control) or to the cells having only undergone exposure to the cigarette extract (Cigarette extract).

[3] = test system: explants of human skin (NATIVESKIN, Genoskin); assay: γ-H2Ax immunofluorescence (DNA double-strand breaks) on human skin explants after repeated UVA irradiation; type: cell-based; settings: skin explant, topical (Ia) 100 ppm in Carbopol, three UVA stresses 50 J/cm2
Protocol: In these examples, the protective properties of the compound (Ia) against the damage caused to the DNA and to the extracellular matrix by repeated UVA irradiation, are measured on explants of human skin (NATIVESKIN, Genoskin).
Upon reception of the explants, the latter are topically coated with Carbopol® (Lubrizol)+DMSO for the non-UVA control (CTL without stress) and for the control with stress by UVAs (CTL UVA), and with Carbopol®+compound (Ia) at 100 ppm for the test.
Over three days, the cells are subjected to three stresses with UVAs at a rate of 50 joules per square centimetre.
The first irradiation takes place 24 hours after the treatments. The products are present before, during and after the irradiation. The control without stress is wrapped in aluminium and also placed in the irradiator.
During the irradiation, the explants inserted are disposed in a petri dish with PBS. Fresh medium (Genoskin Culture medium) is added after the irradiation. […]
The sections are mounted on a slide, and observed using a microscope (Leica DM5000B). An absence of fluorescence is clearly observed for the sample treated with the compound (Ia) according to the invention, which corresponds to an absence of double-strand breaks of the DNA.
The fluorescence is quantified by means of the microscope.

[4] = test system: NHEK cells; assay: Survival (WST1) of NHEK keratinocytes exposed to cigarette extract, comparison with caffeic acid; type: cell-based, human; settings: compound 10 ppm pretreatment 24 h and treatment 24 h, cigarette extract 1/50, cigarette extract alone 55% survival, FIG. 4
Protocol: This study aims to compare the protective or repairing effect of the compounds according to the invention (Ia) and (Ib) with respect to the damage induced on the skin by a cigarette extract. For comparison, caffeic acid (supplier: Acros) is also tested. This acid forms a basic unit of the compounds (Ia) and (Ib) according to the invention.
The NHEK cells are inoculated in a 96-well plate in a suitable medium (Promocell), at a rate of 9000 cells per well, and incubated 24 h at 37° C. and 5% carbon dioxide.
The compounds to be tested are prepared as follows: • (Ia): 10 mg of compound+909 μL of DMSO • (Ib): 7 mg of compound+636 μL of DMSO • caffeic acid: 10 mg of compound+909 μL of DMSO
Each stock solution above is diluted 1000 times, to 10 ppm in the culture medium, then the solutions obtained are filtered by means of a nylon filter (0.22 μm). The final solutions are concentrated to 10 ppm in 0.1% DMSO.
Solutions at 20 ppm in 0.2% DMSO are also prepared in a similar manner, for dilution in the cigarette extract.
An extract of 20 cigarettes is prepared as indicated in example 14 above. This extract is then diluted to 1/50 in the culture medium; or to 2/50 in the culture medium, then to 1/2 in the culture medium, to which the compound to be tested is added at 20 ppm.
The cells are pretreated for 24 h with the compound to be tested at 10 ppm in the culture medium.
The cells are then treated with the cigarette extract diluted to 1/50th with or without the compound tested at 10 ppm for 24 h.
3 h before the end of the test, 10 μl of WST1 cellular proliferation reactant (Roche) are added into each well. The absorbance at 450 nm is measured before and after the addition of WST1 reactant, by means of a Multiskan® reader. The treated cells are compared to the untreated cells and to the cells exposed to the cigarette extract.

## Cc1ncc(CO)c(CNC(=O)/C=C/c2ccc(O)c(O)c2)c1O [Compound (Ia)]
[1]; Homo sapiens, compound 3 ppm, versus control CTL, read-out: inhibition of the production of IL8 in keratinocytes subjected to inflammation in the presence of IL-1β
  inhibition at 3 ppm: 30%
[1]; IL-1β 10 ng/ml 24 h, then substance 24 h, compound (Ia) 3 ppm, dexamethasone 0.4 ppm, CTL 0.23, CTL without IL-1β 0.06
  Quantification of the IL8 (optical density): 0.16 optical density
[2]
  Cellular viability on NHDF (Optical density): 1.674 Optical density
[3]
  Cells positive for γ-H2Ax marking / total number of cells: 59/1282
[3]; CTL UVA 33.93%, CTL without stress 4.34%
  Cells positive for γ-H2Ax marking based on 100%: 4.76%
[4]
  % survival of the cells: 108%
